Test results taken from article PMC8546889 (Acta Pharmaceutica Sinica. B, 2021).
Where two headings read alike, the source gives them in different places. One block for each compound: values may come before it.

Assays:
[1] = read-out: Cytotoxicity (CC50); cited from earlier work
HT-29 cells [2] = test: Anti-necroptosis activity assay; type: cell-based, human; conditions: for EC50: Homo sapiens, HT-29, read-out: Anti-necroptosis (EC50); for anti-necroptosis activity improvement compared with TAK-632: EC50 ratio versus TAK-632
Cytotoxicity = type: cell-based
RIP1 [3] = biological target: T1, RIP1 (Homo sapiens, UniProt Q13546); test: KINOMEscan kinase binding assay, RIP1; conditions: for RIP1 selectivity: RIP1 over RIP3 (Kd ratio)
T1 sequence (Q13546 1-671): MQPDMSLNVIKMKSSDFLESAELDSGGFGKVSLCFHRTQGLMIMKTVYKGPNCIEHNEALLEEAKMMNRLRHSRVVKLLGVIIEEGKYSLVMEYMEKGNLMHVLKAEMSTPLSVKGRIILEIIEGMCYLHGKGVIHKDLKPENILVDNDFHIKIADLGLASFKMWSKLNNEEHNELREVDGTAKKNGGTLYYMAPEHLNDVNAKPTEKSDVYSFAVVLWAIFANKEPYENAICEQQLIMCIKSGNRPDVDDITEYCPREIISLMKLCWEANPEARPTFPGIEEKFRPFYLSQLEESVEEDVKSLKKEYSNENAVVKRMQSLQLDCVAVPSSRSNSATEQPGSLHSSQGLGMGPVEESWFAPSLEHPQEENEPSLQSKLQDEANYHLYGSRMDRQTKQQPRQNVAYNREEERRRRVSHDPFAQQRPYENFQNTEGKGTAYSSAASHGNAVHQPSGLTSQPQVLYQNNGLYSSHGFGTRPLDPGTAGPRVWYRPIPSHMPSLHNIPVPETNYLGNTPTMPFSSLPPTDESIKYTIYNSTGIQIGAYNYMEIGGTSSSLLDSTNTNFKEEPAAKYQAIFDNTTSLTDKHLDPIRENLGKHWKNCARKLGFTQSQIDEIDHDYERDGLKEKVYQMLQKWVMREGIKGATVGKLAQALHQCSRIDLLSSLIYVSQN

RIP3 [4] = biological target: T2, RIP3 (Homo sapiens, UniProt Q9Y572); test: KINOMEscan kinase binding assay, RIP3
T2 sequence (Q9Y572 whole entry): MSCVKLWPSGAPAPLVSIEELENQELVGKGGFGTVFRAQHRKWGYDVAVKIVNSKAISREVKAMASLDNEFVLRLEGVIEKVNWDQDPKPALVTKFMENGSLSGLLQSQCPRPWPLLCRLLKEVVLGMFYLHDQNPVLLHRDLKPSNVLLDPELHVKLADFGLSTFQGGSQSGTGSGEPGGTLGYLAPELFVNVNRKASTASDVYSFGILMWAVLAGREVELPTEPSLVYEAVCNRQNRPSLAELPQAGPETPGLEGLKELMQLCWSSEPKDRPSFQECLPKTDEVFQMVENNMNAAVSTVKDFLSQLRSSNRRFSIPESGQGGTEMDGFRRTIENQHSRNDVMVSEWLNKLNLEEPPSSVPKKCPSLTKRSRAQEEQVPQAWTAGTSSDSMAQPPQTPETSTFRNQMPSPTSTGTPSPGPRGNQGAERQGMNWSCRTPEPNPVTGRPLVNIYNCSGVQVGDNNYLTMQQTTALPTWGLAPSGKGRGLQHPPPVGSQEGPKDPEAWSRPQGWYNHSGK

HT-29 cells [5] = test: TCZ-induced necroptosis in HT-29 cells; type: cell-based, human; conditions: TCZ 24 h
HT-29 cells [6] = test: Apoptosis model induced by TC or TS in HT-29 cells; type: cell-based, human; conditions: different concentrations
[7] = tested on: phosphorylation of RIP1, RIP3, and MLKL; test: Immunoblotting of necroptosis pathway phosphorylation in TSZ-induced HT-29 cells; type: cell-based, human; conditions: 1 μmol/L
healthy mice = test: Single-dose acute oral toxicity test; type: in vivo
C57BL/6 J mice [8] = test: DSS-induced UC model; type: in vivo
PK study in mice = type: in vivo; conditions: male, ICR, mouse, plasma; for AUC: mice
L929 cells = test: TZ-induced necroptosis in L929 cells; conditions: mTNF-α and Z-VAD-FMK (TZ), 9 h
RIP1-RIP3 necrosome = biological target: T3, RIP1-RIP3 necrosome (Homo sapiens, UniProt Q13546); test: Immunoprecipitation of RIP1-RIP3 necrosome; conditions: HT-29 cells, 1 μmol/L, 6 h
T3 sequence (Q13546 1-671): T1 sequence (Q13546 1-671)

RIP1 [9] = biological target: T1, RIP1; test: Drug affinity responsive target stability assay; conditions: 50 μmol/L, HT-29 cell lysates, 0.1% Pronase 30 min
RIP3 [10] = biological target: T2, RIP3; test: Drug affinity responsive target stability assay; conditions: 50 μmol/L, HT-29 cell lysates, 0.1% Pronase 30 min
C57BL/6 J mice [11] = test: TNF-α-induced systemic inflammatory response syndrome; conditions: for survival rate of SIRS mice: over 60 h

SMILES: N#Cc1c(Oc2ccc(F)c(NC(=O)Cc3cccc(C(F)(F)F)c3)c2)ccc2nc(NC(=O)C3CC3)sc12 [Compound 5, N-(7-Cyano-6-(4-fluoro-3-(2-(3-(trifluoromethyl)phenyl)acetamido)phenoxy)benzo[d]thiazol-2-yl)cyclopropanecarboxamide]
CC50 [1]: > 50000 nM

Kd (RIP1 [3]): 710 nM
RIP1 selectivity (RIP1 [3]): 0.37
Kd (RIP3 [4]): 260 nM
SMILES: O=C(Cc1cccc(C(F)(F)F)c1)Nc1cc(Oc2ccc3nc(NC(=O)C4CC4)sc3c2[N+](=O)[O-])ccc1F [Compound 9]
EC50 (HT-29 cells [2]): 480 ± 10 nM
CC50 (Cytotoxicity): > 50000 nM

Kd (RIP1 [3]): 880 nM
RIP1 selectivity (RIP1 [3]): 0.37
Kd (RIP3 [4]): 330 nM
SMILES: CC(=O)c1c(Oc2ccc(F)c(NC(=O)Cc3cccc(C(F)(F)F)c3)c2)ccc2nc(NC(=O)C3CC3)sc12 [Compound 10]
anti-necroptosis activity improvement compared with TAK-632 (HT-29 cells [2]): more than 10 fold
EC50 (HT-29 cells [2]): 130 ± 60 nM
CC50 (Cytotoxicity): > 50000 nM

SMILES: N#Cc1cc(Oc2ccc(F)c(NC(=O)Cc3cccc(C(F)(F)F)c3)c2)cc2sc(NC(=O)C3CC3)nc12 [Compound 15]
EC50 (HT-29 cells [2]): > 10000 nM
anti-necroptosis activity (HT-29 cells [2]; at 10 μmol/L): completely eliminated the activity

SMILES: O=C(Cc1cccc(C(F)(F)F)c1)Nc1cc(Oc2cc3sc(NC(=O)C4CC4)nc3cc2F)ccc1F [Compound 25, N-(5-Fluoro-6-(4-fluoro-3-(2-(3-(trifluoromethyl)phenyl)acetamido)phenoxy)benzo[d]thiazol-2-yl)cyclopropanecarboxamide]
anti-necroptosis potency improvement compared with SZM-594 (HT-29 cells [2]; EC50 ratio versus SZM-594): 21 fold
anti-necroptosis activity improvement compared with TAK-632 (HT-29 cells [2]): 180 fold
inhibition of necroptosis induced by TSZ (HT-29 cells [2]; HT-29 cells, TSZ 12 h): dose-dependently inhibit necroptosis
EC50 (HT-29 cells [2]): 8 ± 1 nM
CC50 (Cytotoxicity): > 50000 nM
activity toward RIP3 (RIP3 [4]; even at 5000 nmol/L): no apparent activity
inhibition of necroptosis induced by TCZ (HT-29 cells [5]): dose-dependently inhibit necroptosis
protective effects in the apoptosis model (HT-29 cells [6]): did not show any protective effects
downstream phosphorylation of MLKL [7]: completely inhibited
phosphorylation of RIP1 and RIP3 ([7]; within 6 h): completely inhibit
death after single oral dose (healthy mice; 5 g/kg intragastric, 2 weeks, male and female mice): no death occurred
acute tolerability (healthy mice; 5 g/kg, 14-day period): well tolerated
colon length (C57BL/6 J mice [8]; 20 mg/kg, Day 13, P < 0.01 versus untreated colitis mice): longer colon length
alleviation of body weight in UC mice (C57BL/6 J mice [8]; 10 or 20 mg/kg intragastric, from Day 11): significantly dose-responsed speeded up
phosphorylation of RIP1, RIP3 and MLKL in colon tissue (C57BL/6 J mice [8]; Western blot, TUNEL): reducing the phosphorylation
mRNA of inflammatory cytokines (Il-6 and Il-1β) and chemokine receptors (Ccr-2 and Ccr-5) (C57BL/6 J mice [8]; colon tissue, qPCR): significantly reduced
protein expressions of IL-6 and IL-1β in colon tissue (C57BL/6 J mice [8]; dose–response manner): inhibited the protein expressions
level of FITC-dextran in the serum (C57BL/6 J mice [8]; intestinal permeability, versus DSS-disease mice): significantly lower
MRT inf (PK study in mice; iv, 1 mg/kg): 1.59 ± 0.43 h
Vd (PK study in mice; iv, 1 mg/kg): 1670 ± 856 L/kg
clearance (PK study in mice; iv, 1 mg/kg): 16.8 ± 4.8 mL/min/kg
half-life (PK study in mice; iv, 1 mg/kg): 1.67 ± 0.46 h
AUC (PK study in mice; iv, 1 mg/kg, AUC0‒t, 1 mg/kg i.v.): 1030 ± 350 ng·h/mL
AUC (PK study in mice; iv, 1 mg/kg, AUC0‒∞, 1 mg/kg i.v.): 1060 ± 354 ng·h/mL
Cmax (PK study in mice; po, 10 mg/kg): 381 ± 35 ng/mL
MRT inf (PK study in mice; po, 10 mg/kg): 2.74 ± 0.32 h
Tmax (PK study in mice; po, 10 mg/kg): 0.67 ± 0.29 h
bioavailability (PK study in mice; po, 10 mg/kg): 9.69 ± 2.31%
half-life (PK study in mice; po, 10 mg/kg): 1.18 ± 0.62 h
AUC (PK study in mice; po, 10 mg/kg, AUC0‒t, 10 mg/kg p.o.): 991 ± 218 ng·h/mL
AUC (PK study in mice; po, 10 mg/kg, AUC0‒∞, 10 mg/kg p.o.): 1030 ± 245 ng·h/mL
attenuation of necroptosis in L929 cells (L929 cells): dose-dependently attenuated necroptosis
TSZ-induced necrosome formation (RIP1-RIP3 necrosome): completely blocked
DARTS protection of RIP1 from protease digestion (RIP1 [9]): protected from protease digestion
DARTS detection of RIP3 after protease digestion (RIP3 [10]): not detected
body temperature loss in SIRS mice (C57BL/6 J mice [11]; 10 or 20 mg/kg intragastric, first 2–3 h after mTNF-α/Z-VAD-FMK): protected mice from body temperature loss
survival rate of SIRS mice (C57BL/6 J mice [11]; single dose 10 mg/kg): 60%
survival rate of SIRS mice (C57BL/6 J mice [11]; single dose 20 mg/kg): 100%
